These results are taken from PubChem BioAssay (NCI).

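Exposure lasted 48 hours, with cells grown in 96-well plates and compounds tested at five concentrations. GI50 = concentration required for 50% inhibition of growth. TGI: concentration producing complete growth inhibition.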 Where only a bound is given, the exact number is not on record here.

What all share (test): NCI anticancer screen, dose series, 48 h
The test system of assay [1] is NCI-H226 lung.
Assay [2] deals with SK-MEL-28 melanoma.
The test system of assay [3] is NCI/ADR-RES ovarian.
For assay [4], the system named is OVCAR-8 ovarian.
Assay [5] deals with OVCAR-5 ovarian.
The test system of assay [6] is MALME-3M melanoma.
Assay [7] deals with DU-145 prostate.
The subject of assay [8] is 786-0 renal.

On to `Cc1nc(-c2nc(-c3ccc(OC(F)(F)F)cc3)no2)nn1Cc1cccc(N2CCC(S(C)(=O)=O)CC2)c1`, for which the GI50 is 0.931 µM in assay [1]; > 24.7 µM in assay [2]; 0.529 µM in assay [3]; 3.86 µM in assay [4]; > 65.8 µM in assay [5]; > 34.3 µM in assay [6]. Also, the results for the GI50 in assay [7] and in assay [8] were > 42.8 µM and 18.4 µM, respectively. The TGI is 41.4 µM in assay [1]; > 100 µM in assay [2]; 28.6 µM in assay [3]; > 100 µM in assay [4]; > 100 µM in assay [5]; > 76.8 µM in assay [6]. Also, the TGI in assay [7] and in assay [8] was > 100 µM throughout.
Consider `O=C([O][Hg][CH2]C1OCCOC1[CH2][Hg][O]C(=O)c1ccccc1)c1ccccc1` (stereo not given), for which the GI50 was 22.5 µM in assay [1]; 5.13 µM in assay [2]; 18.7 µM in assay [3]; 14.9 µM in assay [4]; 22.3 µM in assay [5]; 2.18 µM in assay [6]. Also, the GI50 in assay [7] was 16.1 µM; in assay [8], 12.9 µM. Also, the TGI is 47.3 µM in assay [1]; 16.8 µM in assay [2]; 40.7 µM in assay [3]; 44 µM in assay [4]; 36.7 µM in assay [5]; 3.88 µM in assay [6]. Moreover, the TGI stood at 29.6 µM in assay [7] and 25.5 µM in assay [8].
`COc1ccc2c(c1)CC[C@@H]1[C@@H]2CC[C@]2(C)c3c(cc(C(=O)O)c4sccc34)C[C@@H]12`: the GI50 was 23 µM in assay [1]; 15.8 µM in assay [2]; 15.4 µM in assay [3]; 24.5 µM in assay [4]; 26 µM in assay [5]; 22.6 µM in assay [6]. Besides, the GI50 in assay [7] was 19.2 µM; in assay [8], 16.9 µM. Besides, the TGI was found to be 55.4 µM in assay [1]; 33.4 µM in assay [2]; 40.2 µM in assay [3]; 88.1 µM in assay [4]; 50.1 µM in assay [5]; 42.7 µM in assay [6]. The TGI in assay [7] was 36.2 µM; in assay [8] it was 32.5 µM.
As for `COc1cc(-c2oc3c(OC)cc(OC)c(O)c3c(=O)c2OC)cc(OC)c1OC`, the TGI was > 100 µM in assay [1]; > 100 µM in assay [2]; > 100 µM in assay [3]; 32.7 µM in assay [4]; > 100 µM in assay [5]; > 100 µM in assay [6]. Also, the TGI in assay [7] and in assay [8] was > 100 µM each time.
As for `COc1ccc2c(c1)oc(=O)c1cc(OC)ccc12`, the GI50 in assay [1], in assay [2], in assay [3], in assay [4], in assay [5] and in assay [6] was > 100 µM in each case. Also, the GI50 in assay [7] and in assay [8] was > 100 µM each time. For the same molecule, the TGI in assay [1], in assay [2], in assay [3], in assay [4], in assay [5] and in assay [6] was > 100 µM each time. The TGI in assay [7] and in assay [8] was > 100 µM each time.
As to `CCN1C(=O)N(CC)C2C1NN=c1s/c(=C\c3ccco3)c(=O)n12` (stereo not given), the TGI in assay [1], in assay [2], in assay [3], in assay [4], in assay [5] and in assay [6] was > 100 µM each time. Also, the TGI in assay [7] and in assay [8] was > 100 µM in each case. Also, the GI50 was > 22.8 µM in assay [2]; 0.417 µM in assay [3]; 1.43 µM in assay [4]; 1.31 µM in assay [5]; 2.15 µM in assay [6]; 0.703 µM in assay [7]. Also, in assay [8], the GI50 is 0.571 µM.
For the molecule `N=N/C(=C\c1c(O)[nH]c2ccccc12)c1ccccc1`, the TGI in assay [1] is 99.1 µM; in assay [2] it was > 100 µM; in assay [3], > 57.2 µM; in assay [4] it was > 57.5 µM; in assay [5], > 100 µM; in assay [6], > 78 µM. Besides, the TGI in assay [7] was > 100 µM; in assay [8], > 77 µM.
Regarding `CCNC(=O)Nc1ccc(Oc2ccnc3ccc4c(ccn4C)c23)cc1`, the GI50 in assay [1] is 28.2 µM; in assay [2] it was 9.33 µM; in assay [3], 55.8 µM; in assay [4], 23 µM; in assay [5] it was > 100 µM; in assay [6], 38.3 µM. Moreover, the GI50 in assay [7] was > 100 µM; in assay [8], 35.5 µM. The TGI in assay [1] is 72.8 µM; in assay [2] it was > 100 µM; in assay [3], > 100 µM; in assay [4], > 100 µM; in assay [5], > 100 µM; in assay [6], > 100 µM. Moreover, the TGI in assay [7] was > 100 µM; in assay [8], 96.7 µM.
Regarding `CCCc1cc(=O)n2c(C(=O)Nc3cccc(C(=O)OCC)c3)c(C(=O)Nc3ccc(F)cc3)sc2n1`, the GI50 in assay [1] is 5.83 µM; in assay [2], 133 µM; in assay [3], 22.3 µM; in assay [4], 3.63 µM; in assay [5], 136 µM; in assay [6], 13.1 µM. The GI50 in assay [7] is 58.8 µM; in assay [8], 1.43 µM. The TGI in assay [1] is 27.7 µM; in assay [2] it was > 140 µM; in assay [3] it was > 140 µM; in assay [4], 15 µM; in assay [5], > 140 µM; in assay [6] it was 58 µM. Besides, the TGI is > 140 µM in assay [7] and 5.25 µM in assay [8].
Turning to `Cc1ccc(NC(=O)c2cc3ccccc3c(N=Nc3cc(S(=O)(=O)O)ccc3O)c2O)c(C)c1`, the TGI was > 100 µM in assay [1]; > 100 µM in assay [2]; > 100 µM in assay [3]; > 100 µM in assay [4]; 89.2 µM in assay [5]; 63.8 µM in assay [6]. The TGI in assay [7] and in assay [8] was > 100 µM each time.
